Assay: xn = mol fraction of the nth substance listed

O=C(O)C=Cc1ccccc1 + CO
viscosity [mPa·s]
Conditions	308.15 K	313.15 K	318.15 K	323.15 K
101 kPa, x1 = 0.075	0.8921	–	–	0.7246
101 kPa, x1 = 0.084	0.9758	–	–	0.7679
101 kPa, x1 = 0.0887	1.014	–	–	0.797
101 kPa, x1 = 0.0981	1.092	–	–	0.846
101.33 kPa, x1 = 0.075	0.891	0.8453	0.7855	0.7246
101.33 kPa, x1 = 0.0981	1.092	1.003	0.9163	0.846

CCCCCCCO + COC(=O)OC
Conditions	viscosity [mPa·s]
293.15 K, 101 kPa, x2 = 0.04189	6.005
293.15 K, 101 kPa, x2 = 0.08197	5.163
293.15 K, 101 kPa, x2 = 0.1998	3.52
293.15 K, 101 kPa, x2 = 0.2986	2.615
293.15 K, 101 kPa, x2 = 0.4163	1.928
293.15 K, 101 kPa, x2 = 0.482	1.64
293.15 K, 101 kPa, x2 = 0.6031	1.231
293.15 K, 101 kPa, x2 = 0.7204	0.956
293.15 K, 101 kPa, x2 = 0.7985	0.818
293.15 K, 101 kPa, x2 = 0.9076	0.691
293.15 K, 101 kPa, x2 = 0.9573	0.661
303.15 K, 100 kPa, x2 = 0.0999	3.588
303.15 K, 100 kPa, x2 = 0.2	2.668
303.15 K, 100 kPa, x2 = 0.3001	2.033
303.15 K, 100 kPa, x2 = 0.4	1.59
303.15 K, 100 kPa, x2 = 0.5001	1.275
303.15 K, 100 kPa, x2 = 0.6	1.061
303.15 K, 100 kPa, x2 = 0.7	0.869
303.15 K, 100 kPa, x2 = 0.8	0.707
303.15 K, 100 kPa, x2 = 0.8999	0.609
303.15 K, 101 kPa, x2 = 0.06371	4.012
303.15 K, 101 kPa, x2 = 0.1014	3.549
303.15 K, 101 kPa, x2 = 0.2001	2.661
303.15 K, 101 kPa, x2 = 0.2928	2.07
303.15 K, 101 kPa, x2 = 0.4019	1.583
303.15 K, 101 kPa, x2 = 0.4949	1.282
303.15 K, 101 kPa, x2 = 0.5788	1.071
303.15 K, 101 kPa, x2 = 0.715	0.817
303.15 K, 101 kPa, x2 = 0.7902	0.719
303.15 K, 101 kPa, x2 = 0.9063	0.607
303.15 K, 101 kPa, x2 = 0.9354	0.584
308.15 K, 100 kPa, x2 = 0.0999	3.119
308.15 K, 100 kPa, x2 = 0.2	2.351
308.15 K, 100 kPa, x2 = 0.3001	1.809
308.15 K, 100 kPa, x2 = 0.4	1.434
308.15 K, 100 kPa, x2 = 0.5001	1.149
308.15 K, 100 kPa, x2 = 0.6	0.964
308.15 K, 100 kPa, x2 = 0.7	0.789
308.15 K, 100 kPa, x2 = 0.8	0.66
308.15 K, 100 kPa, x2 = 0.8999	0.57
313.15 K, 100 kPa, x2 = 0.0999	2.725
313.15 K, 100 kPa, x2 = 0.2	2.077
313.15 K, 100 kPa, x2 = 0.3001	1.616
313.15 K, 100 kPa, x2 = 0.4	1.288
313.15 K, 100 kPa, x2 = 0.5001	1.049
313.15 K, 100 kPa, x2 = 0.6	0.875
313.15 K, 100 kPa, x2 = 0.7	0.73
313.15 K, 100 kPa, x2 = 0.8	0.612
313.15 K, 100 kPa, x2 = 0.8999	0.536
313.15 K, 101 kPa, x2 = 0.04009	3.253
313.15 K, 101 kPa, x2 = 0.09588	2.743
313.15 K, 101 kPa, x2 = 0.2155	1.974
313.15 K, 101 kPa, x2 = 0.3104	1.571
313.15 K, 101 kPa, x2 = 0.4052	1.267
313.15 K, 101 kPa, x2 = 0.4938	1.054
313.15 K, 101 kPa, x2 = 0.5968	0.859
313.15 K, 101 kPa, x2 = 0.7024	0.709
313.15 K, 101 kPa, x2 = 0.7953	0.613
313.15 K, 101 kPa, x2 = 0.9018	0.535
313.15 K, 101 kPa, x2 = 0.9477	0.509
318.15 K, 100 kPa, x2 = 0.0999	2.392
318.15 K, 100 kPa, x2 = 0.2	1.847
318.15 K, 100 kPa, x2 = 0.3001	1.454
318.15 K, 100 kPa, x2 = 0.4	1.171
318.15 K, 100 kPa, x2 = 0.5001	0.961
318.15 K, 100 kPa, x2 = 0.6	0.809
318.15 K, 100 kPa, x2 = 0.7	0.683
318.15 K, 100 kPa, x2 = 0.8	0.573
318.15 K, 100 kPa, x2 = 0.8999	0.504
323.15 K, 100 kPa, x2 = 0.0999	2.113
323.15 K, 100 kPa, x2 = 0.2	1.651
323.15 K, 100 kPa, x2 = 0.3001	1.31
323.15 K, 100 kPa, x2 = 0.4	1.068
323.15 K, 100 kPa, x2 = 0.5001	0.885
323.15 K, 100 kPa, x2 = 0.6	0.738
323.15 K, 100 kPa, x2 = 0.7	0.638
323.15 K, 100 kPa, x2 = 0.8	0.539
323.15 K, 100 kPa, x2 = 0.8999	0.476

CS(C)=O + COC(=O)OC
308.15 K, 101 kPa
Conditions	viscosity [mPa·s]
x1 = 0.0596	0.547
x1 = 0.1027	0.57
x1 = 0.1913	0.621
x1 = 0.2791	0.677
x1 = 0.371	0.743
x1 = 0.4598	0.814
x1 = 0.5007	0.853
x1 = 0.5479	0.897
x1 = 0.626	0.983
x1 = 0.7427	1.137
x1 = 0.8572	1.327
x1 = 0.9283	1.47

CCCCC + COC(C)=O
298.15 K, 101 kPa
Conditions	viscosity [mPa·s]
x1 = 0.05	0.342
x1 = 0.1	0.324
x1 = 0.1087	0.322
x1 = 0.15	0.309
x1 = 0.2	0.296
x1 = 0.2088	0.295
x1 = 0.25	0.285
x1 = 0.3	0.275
x1 = 0.3035	0.273
x1 = 0.35	0.266
x1 = 0.4	0.257
x1 = 0.401	0.258
x1 = 0.45	0.25
x1 = 0.5	0.243
x1 = 0.5022	0.243
x1 = 0.55	0.237
x1 = 0.5972	0.232
x1 = 0.6	0.232
x1 = 0.65	0.227
x1 = 0.7	0.223
x1 = 0.7028	0.223
x1 = 0.75	0.22
x1 = 0.8	0.218
x1 = 0.8002	0.219
x1 = 0.85	0.217
x1 = 0.9	0.216
x1 = 0.9009	0.218
x1 = 0.95	0.215

OC1CCCCC1 + COCCO
303.15 K, 101.3 kPa
Conditions	viscosity [mPa·s]
x2 = 0.135	31.36
x2 = 0.232	23.64
x2 = 0.3144	17.36
x2 = 0.4389	9.281
x2 = 0.4908	6.609
x2 = 0.5515	4.075
x2 = 0.9188	0.811

CCOC(=O)C(C)O (stereo unspecified) + COCCOCCOCCOCCOC
101 kPa
Conditions	viscosity [mPa·s]
303.15 K, x1 = 0.3998	2.815
308.15 K, x1 = 0.6001	2.385
323.15 K, x1 = 0.8001	1.605

CC(=O)O.NCCO + CS(C)=O
298.15 K, 101.3 kPa
Conditions	viscosity [mPa·s]
x2 = 0.069	1634
x2 = 0.143	1064
x2 = 0.223	420
x2 = 0.311	375.1
x2 = 0.404	139.5
x2 = 0.502	66.42
x2 = 0.612	29.5
x2 = 0.732	12.73
x2 = 0.852	6.71

NS(=O)(=O)O + CS(C)=O
298 K, 101.33 kPa
Conditions	viscosity [mPa·s]
x1 = 0.02135	2.438
x1 = 0.04282	3.041
x1 = 0.06425	3.822
x1 = 0.08365	4.853

OC1CCCCC1 + CS(C)=O
303.15 K, 101 kPa
Conditions	viscosity [mPa·s]
x2 = 0.1009	20.83
x2 = 0.1821	12.4
x2 = 0.2727	7.835
x2 = 0.373	5.386
x2 = 0.4703	4.069
x2 = 0.5678	3.265
x2 = 0.6724	2.732
x2 = 0.791	2.203
x2 = 0.8922	2.015

— the CheMixHub viscosity set
